Measured values reported in paper PMC5315611 (Clinical cancer research : an official journal of the …, 2016).
Read-outs that look alike come from different tables or passages of the source.

What was measured:
[1] = system: relapsed or refractory acute leukemia; details: cited from earlier work
[2] = human, in vivo, po
[3] = system: AML cell lines and clinical samples; details: in vitro; cited from earlier work
[4] = clinical; details: human, in vivo, po; for half-life: t1/2
[5] = Veliparib plasma pharmacokinetics; details: after multiple doses, MTD (80 mg) vs highest administered dose (100 mg)

## N.N.O=C([O-])C1(C(=O)[O-])CCC1.[Pt+2] [carboplatin]
CI IV days 3-7, with veliparib 80 mg twice daily + topotecan 1.2 mg/m^2/d
  carboplatin dose at the MTD of the combination: 150 mg/m^2/d
[1]; with topotecan simultaneously for 5 days
  maximum tolerated dose (MTD) of carboplatin: 150 mg/m^2/day

## CC[C@@]1(O)C(=O)OCc2c1cc1n(c2=O)Cc2cc3c(CN(C)C)c(O)ccc3nc2-1 [topotecan]
CI IV days 3-7, with veliparib 80 mg twice daily + carboplatin 150 mg/m^2/d
  topotecan dose at the MTD of the combination: 1.2 mg/m^2/d
In vivo
  toxicity associated with topotecan 1.3 mg/m^2: dose-limiting GI mucositis
[1]; with carboplatin simultaneously for 5 days
  maximum tolerated dose (MTD) of topotecan: 1.6 mg/m^2/day

## C[C@]1(c2nc3c(C(N)=O)cccc3[nH]2)CCCN1 [veliparib]
With CI IV topotecan 1.2 mg/m^2/d + carboplatin 150 mg/m^2/day on days 3-7
  maximum tolerated dose (MTD) of veliparib: 80 mg twice daily
[2]; 10 mg
  Cl/F: 27.7 ± 9.3 (23) L/h
[2]; 20 mg
  Cl/F: 31.7 ± 7.7 (12) L/h
[2]; 40 mg
  Cl/F: 36.4 ± 15.4 (5) L/h
[2]; 80 mg
  Cl/F: 26.2 ± 7.1 (30) L/h
  Cmax: 608.7 ± 260.3 (35) ng/mL
  Tmax: 1.1 (0.3 - 6.0; 35) h
  t1/2: 4.7 ± 1.4 (30) h
[2]; 90 mg
  Cl/F: 35.9 ± 10.2 (3) L/h
[2]; 100 mg
  Cl/F: 44.9 ± 50.6 (4) L/h
[3]
  effect on the antiproliferative and proapoptotic effects of topotecan: enhances
  synergy with cytarabine or etoposide: no synergy
[4]; 10 mg
  Cmax: 74.6 ± 33 ng/mL
  half-life: 5.5 ± 3.5 h
  Tmax: 2 h
[4]; 20 mg
  Cmax: 102 ± 31.6 ng/mL
  half-life: 4.7 ± 1.1 h
  Tmax: 2 h
[4]; 40 mg
  Cmax: 231 ± 128 ng/mL
  half-life: 4.1 ± 0.9 h
  Tmax: 1 h
[4]; 90 mg
  Cmax: 509 ± 101 ng/mL
  half-life: 3.2 ± 1.2 h
  Tmax: 1 h
[4]; 100 mg
  Cmax: 1120 ± 718 ng/mL
  half-life: 5.9 ± 2.4 h
  Tmax: 1 h
[5]
  increase in AUC: 2.0 fold
